{"source": "paper doi:10.1101/2025.02.26.640323", "about": "“Aggregation-Dependent Epitope Sequence and Modification Fingerprints of Anti-Aβ Antibodies” (bioRxiv, 2025)", "key": {"Aβ(−10–18)": {"system": "Aβ(−10–18)", "test": "Deep mutational scans of 18-meric Aβ peptides on microarray", "type": "binding, human"}, "[1]": {"system": "amyloid precursor protein (APP770) residues 649–722", "test": "Peptide microarray epitope pre-screening (overlapping 15-mers)", "type": "binding, human", "settings": "0.5–1 μg/mL antibody", "experimental": "Information regarding binding epitopes and /or immunogens for most of the tested Aβ-Abs has been published and is summarized in Table 1. However, the binding epitope information was derived from varying methodologies. To provide an initial side-by-side comparison we pre-screened all of the listed Aβ-Abs in array format using copies of peptide libraries and standard antibody concentrations of 0.5–1 μg/mL (Figure 1a). The library comprised the amyloid precursor protein (APP770) residues 649–722, corresponding to the canonical Aβ1–42 amino acid sequence with additional 23 amino terminal and 9 carboxy terminal residues. […] For optimal signal to noise ratios and ideal selectivity profiles on the microarrays, the Aβ-Ab concentrations were adjusted for 3D6, 82E1, 11H3, 80C2 and 7H3D6 (Figure 1 – figure- supplement 1) and (Appendix 1–7). […] Specifically, Donanemabbs, 2–48 and Aβ-pE3 were raised against AβpE3-x (Table 1) and were expected to show preference for Aβ peptides starting with a pE(3).\nFigure 1. Microarray workflow and Aβ-Ab epitope pre-screening. (a) Schematic of the microarray workflow. The library comprised the amyloid precursor protein (APP) residues 649–722 (APP770 numbering), corresponding to Aβ residues −23 to 51, as a library of 15-mer peptides overlapping by 14AAs, copied in dozens, and probed for Aβ-Abs binding followed by analysis in MARTin. (b) The epitope screening binding data are summarized as a heatmap. Blue and red shades indicate the relative binding strength of the related arrayed peptides to the left and cognate Aβ-Ab on top. The blue – red scale is visualizing the normalized binding intensity for each antibody individually. The applied antibody concentrations ranged between 0.5–1 μg/mL.\nThe μSPOT assay was performed as previously described. […] Peptide arrays were synthesized using MultiPep RSi robot (CEM GmbH, Kamp-Lintford, Germany) on cellulose discs containing Fmoc-β-Ala linkers. Natural amino acid building blocks were purchased from IRIS (IRIS Biotech GmbH, Marktredwitz, Germany). Special building blocks employed in this study such as isomers, stereoisomers, phosphorylation and pyroglutamination […] modifications are listed here: Fmoc-L-Ser(PO(OBzl)OH)-OH (Iris – FAA1423), L-Pyroglutamic acid pentachlorophenyl ester (Novabiochem - 8.54203), Fmoc-L-Asp-OtBu (Iris – FAA1356), Fmoc-D-Asp-OtBu (Carbosolutions – CC05095) and Fmoc-D-Asp(tBu)-OH (Iris – FAA1309). Synthesis was carried out by deprotecting the Fmoc-group using 20% piperidine in dimethylformamide (DMF). Peptide chains were elongated using a coupling solution consisting of amino acids (0.5M) with oxyma (1M) and DIC (1M) in DMF (1:1:1). Coupling steps were carried out 3 times (30min), followed by capping (4% acetic anhydride in DMF). Discs were transferred into 96 deep-well plates for the work-up."}, "synthetic Aβ peptides": {"system": "synthetic Aβ peptides", "test": "Peptide Bicine-Tris SDS-PAGE/Western blot", "type": "binding", "settings": "PVDF, 50 ng per peptide, 0.5 μg/mL antibody"}, "[2]": {"system": "Aβ1–42 monomer, oligomer and fibril preparations; AβpE3–40", "test": "Bistris-SDS gradient PAGE/Western blot", "type": "binding", "settings": "4–12% Bistris SDS-PAGE", "experimental": "No SPR-487B) (StressMarq biosciences, Victoria, BC, Canada). The samples for electrophoresis were prepared (starting from stock solutions) with final concentrations of 0.1 μg/μL) in LDS sample buffer (247.5 mM Tris-HCl, pH 8.5, 2% (w/v) lithium dodecyl sulfate (LDS), 10% (v/v) glycerol, 0.5 mM EDTA, 0.22 mM Brilliant Blue G250, 0.175 mM Phenol Red) and denatured by heating at 70°C for 10 min. […] The prechilled transfer buffer contained 25 mM Tris, 192 mM glycine, 20% (v/v) methanol and 0.0375 % Tween-20. After blotting, the membrane was washed for 10 min at room temperature in Tris-buffered saline (TBS) followed by blocking for 30 min with 5% powdered milk in TBS containing 0.1% Tween-20 (TBS-T). The blots were then incubated with primary antibodies in 5% milk in TBS-T over night at 4°C and washed 3 × for 10 min with TBS-T at room temperature. […] After 1 h incubation with the secondary antibodies, the blots were washed 3 × for 10 min with TBS-T and incubated for 5 min with ECL-Prime Western Blotting Detection Reagent (Cytiva Amersham, Little Chalfont, England). Images were recorded on a Vilber-Loumart Fusion SL blot imager. […] That way, the 4G8 reprobing signals were essentially added on top of the initial signals and background artifacts."}}, "note": "“Also recorded” adds a separate entry of the source.", "data": [{"substance": "Donanemabbs: humanized monoclonal, biosimilar of Donanemab, Proteogenix (#PX-TA1549)", "values": [{"measurement": "core motif / main contacts / epitope", "setting": "Aβ(−10–18); 18-mer deep mutational scan, core position if >50% of exchanges reduce binding by >50%", "result": "EFRHDSGY"}, {"measurement": "residue conservation at Asp(1) and Ala(2)", "setting": "Aβ(−10–18); Aβ1–18 deep mutational scan", "result": "Asp(1) and Ala(2) were not highly conserved"}, {"measurement": "Array: epitope identified in this study on microarrays", "setting": "[1]; Aβ residue numbers, 15-mer peptides overlapping by 14AAs on cellulose conjugates, chemiluminescence", "result": "3–10"}, {"measurement": "binding in epitope pre-screening", "setting": "[1]; unmodified Aβ-related 15-mers, generic pre-screening conditions", "result": "detected Aβ(3-x) starting with non-cyclized Glu (3), Aβ(−3-x) as well as several other N-terminally elongated Aβ-related peptides and Aβ1-x; also recorded: clear signals with AβpE3-x and several other Aβ related peptides starting N-terminally of Glu(3), including Aβ1-x"}, {"measurement": "Aβ variants detected on Bicine-Tris SDS-PAGE/Western blot", "setting": "synthetic Aβ peptides", "result": "detected AβpE3–40 and Aβ3–40"}, {"measurement": "detection of AβpE3–40, Bistris Western blot", "setting": "[2]", "result": "detected multiple AβpE3–40 bands in the low Mwrange"}, {"measurement": "detection of HFIP-treated monomeric, oligomeric and fibrillar Aβ1–42", "setting": "[2]", "result": "very faint signals"}]}]}
